Values after ≈ are worked out from the molar mass of the structure shown.
How the values were obtained:
[1] = test system: Trichophyton mentagrophytes; experiment: Antifungal activity against Trichophyton mentagrophytes after 72 hrs by broth microdilution method; format: functional
[2] = test system: Trichophyton mentagrophytes; experiment: Fungicidal activity against Trichophyton mentagrophytes measured after 96 hrs; format: functional
Candida albicans [3] = experiment: Antifungal activity against Candida albicans after 48 hrs by broth microdilution method; format: functional
Candida albicans [4] = experiment: Fungicidal activity against Candida albicans measured after 72 hrs; format: functional
Nannizzia gypsea [5] = experiment: Antifungal activity against Microsporum gypseum after 72 hrs by broth microdilution method; format: functional
Nannizzia gypsea [6] = experiment: Fungicidal activity against Microsporum gypseum measured after 96 hrs; format: functional
Fungi [7] = experiment: Inhibition of fungal keratinase activity at 10 mg/ml relative to control
Fungi [8] = experiment: Inhibition of fungal keratinase activity at 0.1 to 10 mg/ml relative to control
Candida albicans [9] = experiment: Inhibition of Candida albicans keratinase activity at 8 ppm incubated for 5 days under non-shaking condition and subsequent incubation for 5 days under shaking condition by UV-vis spectrophotometric analysis relative to control
Nannizzia gypsea [10] = experiment: Inhibition of Microsporum gypseum keratinase activity at 8 ppm incubated for 5 days under non-shaking condition and subsequent incubation for 5 days under shaking condition by UV-vis spectrophotometric analysis relative to control
[11] = test system: Trichophyton mentagrophytes; experiment: Inhibition of Trichophyton mentagrophytes keratinase activity at 16 ppm incubated for 5 days under non-shaking condition and subsequent incubation for 5 days under shaking condition by UV-vis spectrophotometric analysis relative to control
[12] = test system: Trichophyton mentagrophytes; experiment: Inhibition of Trichophyton mentagrophytes keratinase activity at MIC incubated for 5 days under non-shaking condition and subsequent incubation for 5 days under shaking condition by UV-vis spectrophotometric analysis relative to control
Nannizzia gypsea [13] = experiment: Inhibition of Microsporum gypseum keratinase activity at MIC incubated for 5 days under non-shaking condition and subsequent incubation for 5 days under shaking condition by UV-vis spectrophotometric analysis relative to control
Candida albicans [14] = experiment: Inhibition of Candida albicans keratinase activity at MIC incubated for 5 days under non-shaking condition and subsequent incubation for 5 days under shaking condition by UV-vis spectrophotometric analysis relative to control
Candida albicans [15] = experiment: Antifungal activity against Candida albicans infected in guinea pig skin assessed as recovery from infection at 10 mg/g administered once daily via superficial route for 15 days measured after 30 days post last dose relative to control; format: functional
Candida albicans [16] = experiment: Inhibition of ergosterol biosynthesis in Candida albicans at MIC by spectrophotometric method relative to control; format: functional
Nannizzia gypsea [17] = experiment: Antifungal activity against Microsporum gypseum infected in guinea pig skin assessed as recovery from infection at 10 mg/g administered once daily via superficial route for 15 days measured after 30 days post last dose relative to control; format: functional
[18] = test system: Trichophyton mentagrophytes; experiment: Inhibition of ergosterol biosynthesis in Trichophyton mentagrophytes at MIC by spectrophotometric method relative to control; format: functional
Candida albicans [19] = experiment: Inhibition of Candida albicans keratinase activity at 2 ppm incubated for 5 days under non-shaking condition and subsequent incubation for 5 days under shaking condition by UV-vis spectrophotometric analysis relative to control
Nannizzia gypsea [20] = experiment: Inhibition of ergosterol biosynthesis in Microsporum gypseum at MIC by spectrophotometric method relative to control; format: functional
[21] = test system: Trichophyton mentagrophytes; experiment: Antifungal activity against Trichophyton mentagrophytes infected in guinea pig skin assessed as recovery from infection at 10 mg/g administered once daily via superficial route for 15 days measured after 30 days post last dose relative to control; format: functional
Nannizzia gypsea [22] = experiment: Inhibition of Microsporum gypseum keratinase activity at 4 ppm incubated for 5 days under non-shaking condition and subsequent incubation for 5 days under shaking condition by UV-vis spectrophotometric analysis relative to control
[23] = test system: Trichophyton mentagrophytes; experiment: Inhibition of Trichophyton mentagrophytes keratinase activity at 4 ppm incubated for 5 days under non-shaking condition and subsequent incubation for 5 days under shaking condition by UV-vis spectrophotometric analysis relative to control

`CN1CCC(=NNc2nc(-c3ccccc3)c(/N=N/c3ccc(Cl)cc3)s2)CC1` showed an MIC [1] of 8 µg/mL (≈ 18.8 µM), an MFC [2] of 32 µg/mL (≈ 75.3 µM) and an MIC (Candida albicans [3]) of 4 µg/mL (≈ 9.41 µM). It also gave an MFC (Candida albicans [4]) of 8 µg/mL (≈ 18.8 µM), an MIC (Nannizzia gypsea [5]) of 4 µg/mL (≈ 9.41 µM) and an MFC (Nannizzia gypsea [6]) of 16 µg/mL (≈ 37.7 µM).
In the case of `Cc1nc(NN=C2CCN(C)CC2)sc1/N=N/c1cccc(Cl)c1`, the MIC [1] is reported as 128 µg/mL (≈ 353 µM), the MFC [2] is reported as greater than 256 µg/mL and the MIC (Candida albicans [3]) is reported as 32 µg/mL (≈ 88.2 µM). It also gave an MFC (Candida albicans [4]) of 128 µg/mL (≈ 353 µM), an MIC (Nannizzia gypsea [5]) of 64 µg/mL (≈ 176 µM) and an MFC (Nannizzia gypsea [6]) of 256 µg/mL (≈ 705 µM).
In the case of `CN1CCC(=NNC2=NC(=O)/C(=N\Nc3ccc([N+](=O)[O-])cc3)S2)CC1`, the MIC [1] is reported as 128 µg/mL (≈ 341 µM), the MFC [2] is reported as greater than 256 µg/mL and the MIC (Candida albicans [3]) is reported as 64 µg/mL (≈ 170 µM). It also gave an MFC (Candida albicans [4]) of 256 µg/mL (≈ 682 µM), an MIC (Nannizzia gypsea [5]) of 128 µg/mL (≈ 341 µM) and an MFC (Nannizzia gypsea [6]) greater than 256 µg/mL.
For `c1ccc(-c2ccc(C(c3ccccc3)n3ccnc3)cc2)cc1` (stereo unspecified), the inhibition (Fungi [7]) was 50%.
`N#C/C(=C1/SCC(c2ccccc2Cl)S1)n1ccnc1` (stereo unspecified) gave an inhibition (Fungi [8]) of 40 to 70%.
In the case of `Cc1ccc(/N=N/c2sc(NN=C3CCN(C)CC3)nc2C)cc1`, the MIC [1] is reported as 32 µg/mL (≈ 93.4 µM), the MFC [2] is reported as 256 µg/mL (≈ 748 µM) and the MIC (Candida albicans [3]) is reported as 16 µg/mL (≈ 46.7 µM). It also gave an MFC (Candida albicans [4]) of 64 µg/mL (≈ 187 µM), an MIC (Nannizzia gypsea [5]) of 32 µg/mL (≈ 93.4 µM) and an MFC (Nannizzia gypsea [6]) of 128 µg/mL (≈ 374 µM).
In the case of `CN1CCC(=NNc2nc(-c3ccccc3)c(/N=N/c3ccc([N+](=O)[O-])cc3)s2)CC1`, the MIC [1] is reported as 16 µg/mL (≈ 36.7 µM), the MFC [2] is reported as 32 µg/mL (≈ 73.5 µM) and the MIC (Candida albicans [3]) is reported as 8 µg/mL (≈ 18.4 µM). For the same molecule, the inhibition (Candida albicans [9]) was 66.1 to 92.2%, the inhibition (Nannizzia gypsea [10]) was 66.1 to 92.2% and the MFC (Candida albicans [4]) was 16 µg/mL (≈ 36.7 µM). The MIC (Nannizzia gypsea [5]) was 8 µg/mL (≈ 18.4 µM), the inhibition [11] was 66.1 to 92.2% and the MFC (Nannizzia gypsea [6]) was 32 µg/mL (≈ 73.5 µM).
`Cc1nc(NN=C2CCN(C)CC2)sc1/N=N/c1ccccc1` gave an inhibition [12] of 33.4 to 46.3%, an MIC [1] of 64 µg/mL (≈ 195 µM) and an inhibition (Nannizzia gypsea [13]) of 33.4 to 46.3%. For the same molecule, the inhibition (Candida albicans [14]) was 33.4 to 46.3%, the MFC [2] was 245 µg/mL (≈ 746 µM) and the MIC (Candida albicans [3]) was 16 µg/mL (≈ 48.7 µM). It also gave an MFC (Candida albicans [4]) of 128 µg/mL (≈ 390 µM), an MIC (Nannizzia gypsea [5]) of 64 µg/mL (≈ 195 µM) and an MFC (Nannizzia gypsea [6]) of 128 µg/mL (≈ 390 µM).
`CN1CCC(=NNC2=NC(=O)/C(=N\Nc3ccccc3)S2)CC1` was tested, and the MIC [1] was 4 µg/mL (≈ 12.1 µM), the Activity (Candida albicans [15]) was 100% and the “inhibition (INH)” value (Candida albicans [16]) was 73.3%. For the same molecule, the Activity (Nannizzia gypsea [17]) was 91%, the “inhibition (INH)” value [18] was 74.3% and the inhibition (Candida albicans [19]) was 96%. For the same molecule, the MFC [2] was 16 µg/mL (≈ 48.4 µM), the MIC (Candida albicans [3]) was 2 µg/mL (≈ 6.05 µM) and the “inhibition (INH)” value (Nannizzia gypsea [20]) was 86.4%. It also gave an Activity [21] of 87%, an MFC (Candida albicans [4]) of 4 µg/mL (≈ 12.1 µM) and an MIC (Nannizzia gypsea [5]) of 4 µg/mL (≈ 12.1 µM). For the same molecule, the inhibition (Nannizzia gypsea [22]) was 94%, the MFC (Nannizzia gypsea [6]) was 8 µg/mL (≈ 24.2 µM) and the inhibition [23] was 91.4%.
Work on `CN1CCC(=NNC2=NC(=O)/C(=N\Nc3ccc(Cl)cc3)S2)CC1` yielded an MIC [1] of 128 µg/mL (≈ 351 µM), an MFC [2] greater than 256 µg/mL and an MIC (Candida albicans [3]) of 64 µg/mL (≈ 175 µM). For the same molecule, the MFC (Candida albicans [4]) was 128 µg/mL (≈ 351 µM), the MIC (Nannizzia gypsea [5]) was 128 µg/mL (≈ 351 µM) and the MFC (Nannizzia gypsea [6]) was 256 µg/mL (≈ 702 µM).
`Cc1nc(NN=C2CCN(C)CC2)sc1/N=N/c1ccc(Cl)cc1` was tested, and the MIC [1] was 16 µg/mL (≈ 44.1 µM), the MFC [2] was 128 µg/mL (≈ 353 µM) and the MIC (Candida albicans [3]) was 16 µg/mL (≈ 44.1 µM). The MFC (Candida albicans [4]) was 32 µg/mL (≈ 88.2 µM), the MIC (Nannizzia gypsea [5]) was 16 µg/mL (≈ 44.1 µM) and the MFC (Nannizzia gypsea [6]) was 128 µg/mL (≈ 353 µM).

Source: ChEMBL document CHEMBL4118157, “Efficiency of newly prepared thiazole derivatives against some cutaneous fungi” (2018)
